One assay deals with H1650 cells. The format is cell-based. The method, then:
IC50 (half maximal inhibitory concentration; μM) values in lung cancer cells. […] The residues marked in red/bold are D-isoforms of amino acids (SEQ ID NOS: 57, 48-54, 40-42 45 and 47 in order of appearance).
Molecular basis of MPS peptide and its potential for increasing nintedanib efficacy. […] A kinetic assay confirmed that this peptide binds PIP2 with a dissociation constant of 17.64 nM (FIG. 10B). As expected, a decrease of PIP3 pools in whole cell lysates of MPS-treated IPF fibroblasts was observed (FIG. 10C), supporting the notion that MPS peptide is able to inhibit AKT activation through trapping PIP2. In view of adverse effects of the current IPF therapeutic nintedanib^9, 10, there is an urgent clinical need to improve the efficacy of such treatment in IPF. Since the TGF-β receptor is not a direct target of nintedanib, targeting an element of TGF-β signaling in tandem with nintedanib administration circumvents the shortcomings of nintedanib monotherapy. […] Based on the above observations, it is assumed that TGF-β-directed phospho-MARCKS is a bypass mechanism of activating PI3K/AKT signaling (FIG. 11B); therefore, it seems reasonable that MARCKS inhibition by MPS treatment may improve nintedanib efficacy, permitting lower doses of nintedanib to be used. To this end, the possibility of a synergistic interaction between MPS and nintedanib in order to circumvent the shortcomings of nintedanib monotherapy was tested. […] Furthermore, the Chou and Talalay CI (combination index) method^25 was used to evaluate the therapeutic interactions between nintedanib and MPS peptide. […] Particularly, the values were lower than 1 at ED50, approximately 1 at ED75, and above 1 at ED90 (data not shown). Thus, the combination effect was dose-dependently correlated with the components, and therefore low dose nintedanib in combination with low dose of MPS presents a synergistic effect on cell proliferation. […] On the basis of the sequences of MPS peptide, the rearrangement of PIP2-binding sites in this peptide were designed and synthesized with the intention of enhancing the efficacy and stability of the MPS peptide. FIG. 13 lists the sequences of various MPS derivatives. In light of the cleavage sites of various proteases and PIP2 binding motifs, Applicant replaced some L-isoform amino acids with D-isoform and these peptides were named as MPS-12042 and MPS-22026. To further validate the efficacy of the above MPS derivatives, Applicant performed a dose-course analysis of H1650 cells undergoing each MPS derivative treatment.

The subject of another assay is primary IPF fibroblasts. The experiment in a line: Combination of nintedanib and MPS peptide, cell viability by MTT, Chou and Talalay CI. It is filed as cell-based, human. The note with it: nintedanib 62.5-2000 nM and/or MPS 6.25-200 μM, 72 hours. The procedure:
FIGS. 12A-12E: (FIGS. 12A-12B) Combinatorial effect of MPS peptide with nintedanib on fibroblasts isolated from two IPF patients. Cells were treated with various closes of nintedanib (62.5-2000 nM) and/or MPS peptide (6.25-200 μM) for 72 hours, respectively. After single ([…]) or combined ([…]) treatment, cell viability was determined by MTT assays. (FIG. 12C) The Chou and Talalay CI (combination index) method was utilized to evaluate the therapeutic interactions between nintedanib and MPS peptide using the Calcusyn software. Gray line, additive effect of the combination of MPS peptide and the drug is represented at CI=1. (FIG. 12D) Cells were individually treated with 1 μM nintedanib, 100 μM MPS peptide or combinations of 1 μM nintedanib and 100 μM MPS peptide. After 48 hours, cell viability was determined by the trypan blue exclusion assay (n+3; *, p<0.05). […] Molecular basis of MPS peptide and its potential for increasing nintedanib efficacy. […] A kinetic assay confirmed that this peptide binds PIP2 with a dissociation constant of 17.64 nM (FIG. 10B). As expected, a decrease of PIP3 pools in whole cell lysates of MPS-treated IPF fibroblasts was observed (FIG. 10C), supporting the notion that MPS peptide is able to inhibit AKT activation through trapping PIP2. […]

For another assay, the system named is α-SMA and phospho-AKT. The experiment in a line: Western blot of α-SMA and phospho-AKT in primary IPF fibroblasts. The format is cell-based, human. Conditions: nintedanib 1000 nM, 48 hours. The method, then: FIGS. 11A-11B: (FIG. 11A) Western blot analysis of α-SMA and phospho-AKT in primary IPF fibroblasts with nintedanib (1000 nM) and/or MPS (100 μM) for 48 hours. (FIG. 11B) A proposed model of activating the PI3K/AKT pathway after nintedanib treatment. An arrow: a direct interaction. Western blot analyses and the preparations of whole-cell lysates have been previously described^14, 16, 27 For whole cell lysates, cells were lysed in a lysis buffer (50 mM Tris-HCl (pH 7.4), 1% Triton X-100, 10% glycerol, 150 mM NaCl, 1 mM EDTA, 20 μg/ml leupeptin, 1 mM PMSF and 20 μg/ml aprotinin) and separated by SDS-PAGE. Immunoblotting was conducted with appropriate antibodies followed by chemiluminescent detection. For immunofluorescent staining, after an antigen retrieval step, tissue slides were reacted with antibodies against FITC-labeled α-SMA and TRITC-conjugated phospho-MARCKS, and nuclei were demarcated with DAPI staining. The cells were mounted onto slides and visualized using fluorescence microscopy (model Axiovert 100; Carl Zeiss, Oberkochen, Germany) or a Zeiss LSM510 laser-scanning confocal microscope image system.
A general note: In western blotting, separated proteins are transferred to a membrane and probed.

Another assay deals with IPF fibroblast cells. The experiment in a line: cells. It is filed as cell-based, human. The note with it: Homo sapiens; IPF fibroblast cells, 72 hours; read-out: IC50 inhibiting IPF fibroblast proliferation. The procedure: FIG. 14: Comparison of MPS-12042 (SEQ ID NO: 45) versus know tyrosine kinase inhibitor (TKLs) on the treatment of IPF fibroblast cells. Both normal and IPF lung fibroblast cells were treated with various drugs. After 72 hours, cells were subjected to MTT assays and IC50 for each drug was determined.
Human primary fibroblast cells were obtained from airway tissues provided from the UC Davis Medical Hospital (Sacramento, Calif.) with consent. The protocol for human tissue procurement and usage were periodically reviewed and approved by the University Human Subject Research Review Committee. Primary fibroblast cell lines, IPF-1 and IPF-2 cells, were established from IPF patients. Cells were obtained from lung biopsies and the diagnosis of IPF was supported by patient history, physical examination, pulmonary function tests, and typical high-resolution chest computed tomography findings of IPF. […] All patients fulfilled the criteria for the diagnosis of IPF as established by the American Thoracic Society and European Respiratory Society. Non-fibrotic primary control adult human lung fibroblast lines, Normal-1 and Normal-2 cells were used. These lines were established from normal lung tissue or histologically normal lung tissue adjacent to carcinoid tumor. The IPF cell line, LL97A, was purchased from the American Type Culture Collection (ATCC) (Manassas, Va.). Lung fibroblast lines were cultured in high-glucose DMEM or RPMI-1640 medium with 10% fetal bovine serum and 1% penicillin-streptomycin at 37° C. in a humidified atmosphere of 5% CO2. Fibroblasts were used between passages 4 and 8. Cells were characterized as fibroblasts as described^26.
Cells were seeded onto 96-well plates at a density of 5-10×10^3 cells per well and cultured for the indicated treatment. Cell proliferation was evaluated using a MTS assay kit (Promega, Madison, Wis.). Twenty microliters of the combined MTS/PMS solution was added into each well, incubated for 3 hours at 37° C., and the absorbance was measured at 490 nm by using an ELISA reader. For Trypan blue test, cells were plated on 12-well plates and treated with the indicated chemotherapeutic agents. After 72 hours, both attached and detached cells were collected and then stained with 0.2% trypan blue (0.1% final concentration), and the number of trypan blue-positive and -negative cells was counted using a haemocytometer under low-power microscopy. For colony-forming assays, 200 cells were seeded in each well of six-well plates. IPF-1 or IPF-2 primary cells were treated with peptides at the indicated concentrations for 10 days. Colonies were stained using 0.001% crystal violet and the number of colonies with a diameter greater than 0.5 mm was counted under an inverted microscope.

Where a SMILES comes first, the peptide text is derived from it. Where no end group is shown, it is not given here. [ ]: non-standard residue; d: D form.

Turning to `CC(C)C[C@@H](NC(=O)[C@@H](C)NC(=O)[C@@H](Cc1ccccc1)NC(=O)[C@@H](C)NC(=O)CNC(=O)[C@@H](Cc1ccccc1)NC(=O)[C@H](C)NC(=O)[C@@H](Cc1ccccc1)NC(=O)[C@H](CCCCN)NC(=O)[C@H](CCCCN)NC(=O)[C@H](CCCCN)NC(=O)[C@H](CCCCN)NC(=O)[C@@H](N)CCCCN)C(=O)N[C@@H](CCCCN)C(=O)N[C@H](CCCCN)C(=O)N[C@H](Cc1ccccc1)C(=O)N[C@@H](C)C(=O)N[C@H](Cc1ccccc1)C(=O)N[C@H](CCCNC(=N)N)C(=O)N[C@H](CCCCN)C(=O)N[C@@H](CCCCN)C(=O)N[C@@H](CCCCN)C(=O)N[C@@H](CC(N)=O)C(=O)N[C@H](CCCCN)C(=O)N[C@@H](CCCCN)C(=O)O` [MPS-22026] (H-KKKKK[dF]A[dF]G[dA][dF][dA][dL]K[dK][dF]A[dF][dR][dK]KKN[dK]K-OH; N-terminus and C-terminus assumed), in the assay with H1650 cells, the IC50 was 11 µM. With `COC(=O)c1ccc2c(c1)NC(=O)/C2=C(\Nc1ccc(N(C)C(=O)CN2CCN(C)CC2)cc1)c1ccccc1` [nintedanib, reference compound], the Cell viability entry in the assay on primary IPF fibroblasts was “decreased”. For the same compound, in the assay with α-SMA and phospho-AKT, the phospho-AKT result is recorded as “no change” and the α-SMA expression entry is “increase”. Further, in the assay on IPF fibroblast cells, the IC50 was in the range of 13.8 to 15.9 µM. For AKKKKRFSFKKSFKLSGFSFKKNKK [MPS-11001], the IC50 in the assay on H1650 cells turned out to be 85 µM. Same read-out and setting: as for “Ac-KKKKKRFSFKKSFKLSGFSFKKNKK-NH2 [MPS-11200]”, the figure is 78 µM; as for FSFGSFSLKKFSFRKKKNKK [MPS-21010], 83 µM. The same measure, in the same setting: as for KKAKKRFSFKKSFKLSGFSFKKNKK [MPS-11003], the figure is 85 µM; as for KKKKFAFGAFALKKFAFRKKKNKK [MPS-21026], 49 µM.

Consider KKKKFSFGSFSLKKFSFRKKKNKK [MPS-21020], for which the IC50 in the assay on H1650 cells was determined as 64 µM.

Regarding KKKKKAFSFKKSFKLSGFSFKKNKK [MPS-11006], the IC50 in the assay with H1650 cells worked out at 79 µM. KKKKKRFSFAKSFKLSGFSFKKNKK [MPS-11010]: the IC50 in the assay on H1650 cells was 73 µM. Same read-out and setting: next, KKKKKRFSFKASFKLSGFSFKKNKK [MPS-11011]: 29 µM.

As to KKKKKRFSFKKSFKLSGFSFKANKK [MPS-11022], the IC50 in the assay with H1650 cells turned out to be 83 µM.
